The text below walks through data of patent US9120756B2, “Substituted phenylureas and phenylamides as vanilloid receptor ligands” (Gruenenthal GmbH, priority 2009, dated 2015).

The target of test [1] is T1, hVR1 (Homo sapiens (Human), UniProt Q8NER1). The test is described as follows: FLIPR Ca2+ influx assay on CHO K1 cells transfected with the VR1 gene, capsaicin stimulus (method II). The test is classed as cell-based. To be noted: capsaicin (Cap), read-out: Ki (human being) [nM] Cap.
In test [2] the target is T1, hVR1. As to the kind of experiment: FLIPR assay human VR1, 45° C. stimulus. The test is classed as cell-based. The settings on record: inhibition determined at 2.5 μM, read-out: IC50 (human being) 45° C. column: inhibition (as a percentage) @ 2.5 μM. An excerpt:
The agonistic or antagonistic effect of the substances to be tested on the vanilloid receptor 1 (VR1) can also be determined using the following assay. In this assay, the influx of Ca^2+ through the channel is quantified with the aid of a Ca^2+-sensitive dye (type Fluo-4, Molecular Probes Europe BV, Leiden, the Netherlands) in a fluorescent imaging plate reader (FLIPR, Molecular Devices, Sunnyvale, USA).
Chinese hamster ovary cells (CHO K1 cells, European Collection of Cell Cultures (ECACC) United Kingdom) are stably transfected with the VR1 gene. For functional testing, these cells are plated out on poly-D-lysine-coated black 96-well plates having a clear base (BD Biosciences, Heidelberg, Germany) at a density of 25,000 cells/well. The cells are incubated overnight at 37° C. and 5% CO2 in a culture medium (Ham's F12 nutrient mixture, 10% by volume of FCS (foetal calf serum), 18 μg/ml of L-proline). The next day the cells are incubated with Fluo-4 (Fluo-4 2 μM, 0.01% by volume of Pluronic F127, Molecular Probes in HBSS (Hank's buffered saline solution), Gibco Invitrogen GmbH, Karlsruhe, Germany) for 30 minutes at 37° C. Subsequently, the plates are washed three times with HBSS buffer and after further incubation for 15 minutes at RT used for Ca^2+ measurement in a FLIPR assay. The Ca^2+-dependent fluorescence is measured before and after the addition of the substances to be tested (λex wavelength=488 nm, λem=540 nm). Quantification is carried out by measuring the highest fluorescence intensity (FC, fluorescence counts) over time.
The FLIPR protocol consists of 2 substance additions. […]
Desensitising agonists and antagonists led to suppression of the Ca^2+ influx.
Ki values for the test substances were obtained by conversion by means of the Cheng-Prusoff equation (Cheng, Prusoff; Biochem. Pharmacol. 22, 3099-3108, 1973).

Molecules are shown by their SMILES.

T1 sequence (Q8NER1 whole entry): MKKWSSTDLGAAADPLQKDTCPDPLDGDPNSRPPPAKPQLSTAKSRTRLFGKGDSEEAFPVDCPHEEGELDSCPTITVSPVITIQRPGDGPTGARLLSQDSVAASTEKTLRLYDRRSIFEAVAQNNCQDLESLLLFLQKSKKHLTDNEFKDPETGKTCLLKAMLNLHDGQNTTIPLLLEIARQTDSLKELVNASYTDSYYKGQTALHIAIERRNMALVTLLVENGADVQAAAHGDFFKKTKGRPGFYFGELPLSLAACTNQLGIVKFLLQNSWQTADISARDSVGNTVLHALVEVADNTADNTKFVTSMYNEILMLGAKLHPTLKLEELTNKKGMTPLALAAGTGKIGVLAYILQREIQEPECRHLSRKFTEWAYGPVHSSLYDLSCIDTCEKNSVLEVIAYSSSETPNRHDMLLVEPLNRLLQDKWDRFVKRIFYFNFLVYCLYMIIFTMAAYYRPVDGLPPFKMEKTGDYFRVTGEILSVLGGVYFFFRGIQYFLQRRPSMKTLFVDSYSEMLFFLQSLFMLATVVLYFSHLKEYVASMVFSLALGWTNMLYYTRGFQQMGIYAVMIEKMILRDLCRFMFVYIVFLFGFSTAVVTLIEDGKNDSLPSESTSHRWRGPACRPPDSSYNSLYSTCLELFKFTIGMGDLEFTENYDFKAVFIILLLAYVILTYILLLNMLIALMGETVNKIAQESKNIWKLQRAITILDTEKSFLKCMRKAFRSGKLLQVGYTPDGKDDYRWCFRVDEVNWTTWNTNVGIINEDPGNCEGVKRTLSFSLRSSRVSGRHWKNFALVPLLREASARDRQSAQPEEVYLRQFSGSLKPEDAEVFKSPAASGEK

Broadly, the Ki is a dissociation constant, usually derived from enzyme kinetics or from competition with a known ligand. For orientation: inhibition means how much of the control response was suppressed. Turning to `O=C(Cc1cccc(F)c1)NCc1cc(C(F)(F)F)nn1-c1cccc(Cl)c1` [Example 74, N-((1-(3-chlorophenyl)-3-(trifluoromethyl)-1H-pyrazol-5-yl)methyl)-2-(3-fluorophenyl)acetamide], on hVR1 [1], the Ki worked out at 51.8 nM. On hVR1 [2], the inhibition at 2.5 µM amounted to 12%.
